{"source": "ChEMBL document CHEMBL5532726", "about": "“Somatostatin Receptor Subtype 4 Agonists for Potential Treatment of Alzheimer's Disease and Other Central Nervous System Disorders” (ACS Med Chem Lett, 2024)", "biological_target": "Somatostatin receptor type 1 (Homo sapiens, UniProt P30872)", "sequence (P30872 whole entry)": "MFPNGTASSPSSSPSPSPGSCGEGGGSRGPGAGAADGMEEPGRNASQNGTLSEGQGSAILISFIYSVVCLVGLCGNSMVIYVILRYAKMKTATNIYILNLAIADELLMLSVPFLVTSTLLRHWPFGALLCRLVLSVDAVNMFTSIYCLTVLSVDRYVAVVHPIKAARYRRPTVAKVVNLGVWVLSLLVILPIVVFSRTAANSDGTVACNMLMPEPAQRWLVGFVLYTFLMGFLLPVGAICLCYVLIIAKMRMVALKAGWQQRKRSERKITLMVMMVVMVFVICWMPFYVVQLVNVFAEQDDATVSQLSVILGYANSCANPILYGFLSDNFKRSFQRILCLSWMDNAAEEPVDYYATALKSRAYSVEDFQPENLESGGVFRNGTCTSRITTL"}
{"smiles": "CC(Oc1ccccc1C1CC1)C(=O)N[C@H]1CCNC[C@@H]1F", "note": "(stereo partly specified)", "values": [{"measurement": "IC50", "result": "> 50.1", "unit": "µM"}]}
